Test results as given in patent US12495798B2, “Nicotinamide compound and herbicidal composition comprising compound” (KOREA RESEARCH INSTITUTE OF CHEMICAL TECHNOLOGY, priority 2019, dated 2025).

Key:
Format in all cases: in vivo
quack grass [1] = assay: Herbicidal activity test against upland field weeds (soil treatment test); parameters: key to Soil treatment herbicidal activity, quack grass: 0 (no control); 100 (complete control); settings: scale 0 (no control) to 100 (complete control)
Procedure, shortened: (§1)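 Pre-emergence test: seeds or rootstocks were sown in fertilized sandy loam, and the next day the soil surface was sprayed with compound at 50 or 75 g a.i./ha in 50% acetone/0.1% Tween-20. Plants were grown in a greenhouse (30±5 °C, 14/10 h light/dark), then visually scored 0–100 against untreated at 14 d (21 d if needed).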

quack grass [2] = assay: Herbicidal activity test against upland field weeds (foliar treatment test); parameters: key to Foliar treatment herbicidal activity, quack grass: 0 (no control); 100 (complete control); settings: scale 0-100
Procedure, shortened: (§2)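 Weeds were raised from seed or rootstocks in horticultural soil in a greenhouse (30±5° C., 14/10 h light/dark), then foliage was hand-sprayed with compound at 50 or 75 g a.i./ha in 50% acetone with 0.1% Tween-20. Control was scored visually 0–100 against untreated plants after 14 days, or 21 if needed.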

velvetleaf [3] = assay: as above; parameters: key to Foliar treatment herbicidal activity, velvet leaf: 0 (no control); 100 (complete control)
Procedure, shortened: as §2

fall panicum [4] = assay: as above; parameters: key to Foliar treatment herbicidal activity, Fall panicum: 0 (no control); 100 (complete control); settings: scale 0-100
Procedure, shortened: as §2

black nightshade [5] = assay: Herbicidal activity test against upland field weeds (soil treatment test); settings: Solanum nigrum, scale 0 (no control) to 100 (complete control); for pest or weed control at 50 g/ha: 50 g ai/ha
Procedure, shortened: as §1

indian jointvetch [6] = assay: as above; parameters: key to Soil treatment herbicidal activity, Indian jointvetch: 0 (no control); 100 (complete control); settings: scale 0 (no control) to 100 (complete control); for Soil treatment herbicidal activity, Indian jointvetch: 50 g ai/ha
Procedure, shortened: as §1

barnyard grass [7] = assay: Herbicidal activity test against upland field weeds (foliar treatment test); parameters: key to Foliar treatment herbicidal activity, barnyard grass: 0 (no control); 100 (complete control); settings: scale 0-100
Procedure, shortened: as §2

sorghum [8] = assay: Herbicidal activity test against upland field weeds (soil treatment test); parameters: key to Soil treatment herbicidal activity, Sorghum: 0 (no control); 100 (complete control); settings: scale 0 (no control) to 100 (complete control)
Procedure, shortened: as §1

crabgrass [9] = assay: as above; parameters: key to Soil treatment herbicidal activity, Crabgrass: 0 (no control); 100 (complete control); settings: scale 0 (no control) to 100 (complete control); for Soil treatment herbicidal activity, Crabgrass: 50 g ai/ha
Procedure, shortened: as §1

black nightshade [10] = assay: Herbicidal activity test against upland field weeds (foliar treatment test); parameters: key to Foliar treatment herbicidal activity, black nightshade: 0 (no control); 100 (complete control); settings: scale 0-100
Procedure, shortened: as §2

cocklebur [11] = assay: Herbicidal activity test against upland field weeds (soil treatment test); parameters: key to Soil treatment herbicidal activity, Cocklebur: 0 (no control); 100 (complete control); settings: scale 0 (no control) to 100 (complete control)
Procedure, shortened: as §1

crabgrass [12] = assay: Herbicidal activity test against upland field weeds (foliar treatment test); parameters: key to Foliar treatment herbicidal activity, Crabgrass: 0 (no control); 100 (complete control); settings: scale 0-100; for Foliar treatment herbicidal activity, Crabgrass: 50 g ai/ha
Procedure, shortened: as §2

sorghum [13] = assay: as above; parameters: key to Foliar treatment herbicidal activity, Sorghum: 0 (no control); 100 (complete control); settings: scale 0-100
Procedure, shortened: as §2

barnyard grass [14] = assay: Herbicidal activity test against upland field weeds (soil treatment test); parameters: key to Soil treatment herbicidal activity, barnyard grass: 0 (no control); 100 (complete control); settings: scale 0 (no control) to 100 (complete control); for Soil treatment herbicidal activity, barnyard grass: 50 g ai/ha
Procedure, shortened: as §1

bindweed [15] = assay: Herbicidal activity test against upland field weeds (foliar treatment test); parameters: key to Foliar treatment herbicidal activity, Bindweed: 0 (no control); 100 (complete control); settings: scale 0-100
Procedure, shortened: as §2

cocklebur [16] = assay: as above; parameters: key to Foliar treatment herbicidal activity, Cocklebur: 0 (no control); 100 (complete control); settings: scale 0-100; for Foliar treatment herbicidal activity, Cocklebur: 50 g ai/ha
Procedure, shortened: as §2

bindweed [17] = assay: Herbicidal activity test against upland field weeds (soil treatment test); parameters: key to Soil treatment herbicidal activity, Bindweed: 0 (no control); 100 (complete control); settings: scale 0 (no control) to 100 (complete control)
Procedure, shortened: as §1

indian jointvetch [18] = assay: Herbicidal activity test against upland field weeds (foliar treatment test); parameters: key to Foliar treatment herbicidal activity, Indian jointvetch: 0 (no control); 100 (complete control); settings: scale 0-100; for Foliar treatment herbicidal activity, Indian jointvetch: 50 g ai/ha
Procedure, shortened: as §2

fall panicum [19] = assay: Herbicidal activity test against upland field weeds (soil treatment test); parameters: key to Soil treatment herbicidal activity, Fall panicum: 0 (no control); 100 (complete control); settings: scale 0 (no control) to 100 (complete control); for Soil treatment herbicidal activity, Fall panicum: 50 g ai/ha
Procedure, shortened: as §1

velvetleaf [20] = assay: as above; parameters: key to Soil treatment herbicidal activity, velvet leaf: 0 (no control); 100 (complete control); settings: scale 0 (no control) to 100 (complete control)
Procedure, shortened: as §1

[21] = Abutilon theophrasti, 50 g ai/ha, scale 0-100, read-out: Foliar treatment herbicidal activity, velvet leaf
[22] = Abutilon theophrasti, 50 g ai/ha, read-out: Soil treatment herbicidal activity, velvet leaf
[23] = Panicum dichotomiflorum, 75 g ai/ha
[24] = Echinochloa crus-galli, 75 g ai/ha
[25] = Digitaria sanguinalis, 75 g ai/ha

| SMILES | Soil treatment herbicidal activity, quack grass (quack grass [1]; 50 g ai/ha) | Foliar treatment herbicidal activity, quack grass (quack grass [2]; 50 g ai/ha) | pest or weed control at 50 g/ha (velvetleaf [3]; [21]) [%] | Foliar treatment herbicidal activity, Fall panicum (fall panicum [4]; 50 g ai/ha) | pest or weed control at 50 g/ha (black nightshade [5]) [%] | Soil treatment herbicidal activity, Indian jointvetch (indian jointvetch [6]) | Foliar treatment herbicidal activity, barnyard grass (barnyard grass [7]; 50 g ai/ha) | Soil treatment herbicidal activity, Sorghum (sorghum [8]; 50 g ai/ha) | Soil treatment herbicidal activity, Crabgrass (crabgrass [9]) | pest or weed control at 50 g/ha (black nightshade [10]; Solanum nigrum, 50 g ai/ha) [%] | Soil treatment herbicidal activity, Cocklebur (cocklebur [11]; 50 g ai/ha) | Foliar treatment herbicidal activity, Crabgrass (crabgrass [12]) | Foliar treatment herbicidal activity, Sorghum (sorghum [13]; 50 g ai/ha) | Soil treatment herbicidal activity, barnyard grass (barnyard grass [14]) | Foliar treatment herbicidal activity, Cocklebur (cocklebur [16]) | Foliar treatment herbicidal activity, Indian jointvetch (indian jointvetch [18]) | Soil treatment herbicidal activity, Fall panicum (fall panicum [19]) | pest or weed control at 50 g/ha (velvetleaf [20]; [22]) [%] | Foliar treatment herbicidal activity, Bindweed (bindweed [15]; 50 g ai/ha) | Soil treatment herbicidal activity, Bindweed (bindweed [17]; 50 g ai/ha) | also measured |
| --- | --- | --- | --- | --- | --- | --- | --- | --- | --- | --- | --- | --- | --- | --- | --- | --- | --- | --- | --- | --- | --- |
| C=Cc1cc(C(=O)Nc2nnnn2C)c(OCc2nnnn2C)nc1C(F)(F)F [Compound No. 1-18, N-(1-methyl-1H-tetrazol-5-yl)-2-((1-methyl-1H-tetrazol-5-yl)methoxy)-6-(trifluoromethyl)-5-vinylnicotinamide] | 0 | 0 | 20 | 0 | 80 | 0 | 0 | 0 | 0 | 80 | 0 | 0 | 0 | 0 | 0 | 0 | 0 | 20 |  |  | pest or weed control at 50 g/ha (bindweed [15]; 50 g ai/ha): 20%; pest or weed control at 50 g/ha (bindweed [17]; 50 g ai/ha): 20% |
| CCc1cc(C(=O)Nc2nnnn2C)c(OCc2nnnn2C)nc1C(F)(F)F [Compound No. 1-19, 5-ethyl-N-(1-methyl-1H-tetrazol-5-yl)-2-((1-methyl-1H-tetrazol-5-yl)methoxy)-6-(trifluoromethyl)nicotinamide] | 0 | 0 | 20 | 0 | 98 | 0 | 0 | 0 | 0 | 90 | 0 | 0 | 0 | 0 | 0 | 0 | 0 | 20 | 0 | 0 |  |
| Cn1nnc(C[S+]([O-])Cc2nc(C(F)(F)F)ccc2C(=O)Nc2nnnn2C)n1 (centres unmarked) [Compound No. 2-104, N-(1-methyl-1H-tetrazol-5-yl)-2-((((2-methyl-2H-tetrazol-5-yl)methyl)sulfinyl)methyl)-6-(trifluoromethyl)nicotinamide] | 0 |  |  |  | 98 | 0 |  | 0 | 0 |  | 0 | 100 |  | 0 | 100 | 100 | 0 |  | 100 | 0 | pest or weed control at 50 g/ha (quack grass [2]; 50 g ai/ha): 30%; Foliar treatment herbicidal activity, velvet leaf (velvetleaf [3]; 50 g ai/ha, scale 0-100): 100; pest or weed control at 50 g/ha (fall panicum [4]; Panicum dichotomiflorum, 50 g ai/ha): 98%; pest or weed control at 50 g/ha (barnyard grass [7]; Echinochloa crus-galli, 50 g ai/ha): 98%; Foliar treatment herbicidal activity, black nightshade (black nightshade [10]; 50 g ai/ha): 100; plant injury at 50 g/ha (sorghum [13]; Sorghum, 50 g ai/ha): 80%; Soil treatment herbicidal activity, velvet leaf (velvetleaf [20]; 50 g ai/ha): 100 |
| CN(CCOCc1nnn(C)n1)c1nc(C(F)(F)F)ccc1C(=O)Nc1nnnn1C [Compound No. 2-34, 2-(methyl(2-((2-methyl-2H-tetrazol-5-yl)methoxy)ethyl)amino)-N-(1-methyl-1H-tetrazol-5-yl)-6-(trifluoromethyl)nicotinamide] |  |  |  |  |  |  |  |  |  |  |  |  |  |  |  |  |  |  |  |  | Soil treatment herbicidal activity, quack grass (quack grass [1]; 75 g ai/ha): 0; Foliar treatment herbicidal activity, quack grass (quack grass [2]; 75 g ai/ha): 0; pest or weed control at 75 g/ha (velvetleaf [3]; Abutilon theophrasti, 75 g ai/ha, scale 0-100, read-out: Foliar treatment herbicidal activity, velvet leaf): 50%; pest or weed control at 75 g/ha (fall panicum [4]; [23]): 40%; pest or weed control at 75 g/ha (black nightshade [5]; 75 g ai/ha): 95%; pest or weed control at 75 g/ha (indian jointvetch [6]; 75 g ai/ha): 70%; pest or weed control at 75 g/ha (barnyard grass [7]; [24]): 70%; Soil treatment herbicidal activity, Sorghum (sorghum [8]; 75 g ai/ha): 0; pest or weed control at 75 g/ha (crabgrass [9]; [25]): 70%; pest or weed control at 75 g/ha (black nightshade [10]; Solanum nigrum, 75 g ai/ha): 95%; Soil treatment herbicidal activity, Cocklebur (cocklebur [11]; 75 g ai/ha): 0; pest or weed control at 75 g/ha (crabgrass [12]; [25]): 60%; plant injury at 75 g/ha (sorghum [13]; Sorghum, 75 g ai/ha): 20%; pest or weed control at 75 g/ha (barnyard grass [14]; [24]): 60%; pest or weed control at 75 g/ha (bindweed [15]; 75 g ai/ha): 50%; pest or weed control at 75 g/ha (cocklebur [16]; Xanthium strumarium, 75 g ai/ha): 40%; Soil treatment herbicidal activity, Bindweed (bindweed [17]; 75 g ai/ha): 0; pest or weed control at 75 g/ha (indian jointvetch [18]; 75 g ai/ha): 60%; pest or weed control at 75 g/ha (fall panicum [19]; [23]): 80%; pest or weed control at 75 g/ha (velvetleaf [20]; Abutilon theophrasti, 75 g ai/ha, read-out: Soil treatment herbicidal activity, velvet leaf): 60% |
